Data published in ChEMBL document CHEMBL3885881, “DrugMatrix”.

Organism: Rattus norvegicus
Assay: DrugMatrix - Regimen: Daily Repeat
Format: toxicity, organism-based, Sprague-Dawley
Design: regimen Daily Repeat, gender Male, age 6-8 weeks
Settings: in vivo, po, route oral GAVAGE, […]; for URIC ACID / ALANINE AMINOTRANSFERASE / ALBUMIN / ALKALINE PHOSPHATASE / ASPARTATE AMINOTRANSFERASE / BLOOD UREA NITROGEN / CARBON DIOXIDE / CHLORIDE / CHOLESTEROL / CREATINE PHOSPHOKINASE / CREATININE / GLUCOSE / LACTATE DEHYDROGENASE / LIPASE / PHOSPHORUS / POTASSIUM / SODIUM / TOTAL BILIRUBIN / TOTAL PROTEIN: tissue Plasma
[1] = 1 mg/kg, 120 h, tissue Blood, dose level Low, time 5 day
[2] = 1 mg/kg, 120 h, dose level Low, time 5 day
[3] = 2.75 mg/kg, 72 h, tissue Blood, dose level High, time 3 day
[4] = 2.75 mg/kg, 72 h, dose level High, time 3 day
[5] = 2.75 mg/kg, 120 h, tissue Blood, dose level High, time 5 day
[6] = 2.75 mg/kg, 120 h, dose level High, time 5 day

## C[C@H]1O[C@@H](O[C@H]2[C@@H](O)C[C@H](O[C@H]3[C@@H](O)C[C@H](O[C@H]4CC[C@@]5(C)[C@H](CC[C@@H]6[C@@H]5CC[C@]5(C)[C@@H](C7=CC(=O)OC7)CC[C@]65O)C4)O[C@@H]3C)O[C@@H]2C)C[C@H](O)[C@@H]1O [DIGITOXIN]
1 mg/kg, 72 h, dose level Low, time 3 day
  URIC ACID: 0.53 mg/dL
[1]
  ABSOLUTE BASOPHIL: 0 CELLS/uL
  ABSOLUTE EOSINOPHIL: 0 CELLS/uL
  ABSOLUTE LYMPHOCYTE: 9184 CELLS/uL
  ABSOLUTE MONOCYTE: 19 CELLS/uL
  ABSOLUTE SEGMENTED NEUTROPHIL: 697 CELLS/uL
  BASOPHIL: 0%
  EOSINOPHIL: 0%
  ERYTHROCYTE COUNT: 5.65 x10E6/uL
  HEMATOCRIT: 35.27%
  HEMOGLOBIN: 13.63 G/DL
  LEUKOCYTE COUNT: 9.9 x10E3/uL
  LYMPHOCYTE: 93%
  MEAN CORPUSCULAR HEMOGLOBIN: 24.2 pg
  MEAN CORPUSCULAR HEMOGLOBIN CONCENTRATION: 38.7 G/DL
  MEAN CORPUSCULAR VOLUME: 62.47 fL
  MONOCYTE: 0.33%
  NEUTROPHIL: 6.67%
  NUCLEATED RED BLOOD CELLS: 0 /100WBC
  PLATELET COUNT: 833 x10E3/uL
[2]
  ALANINE AMINOTRANSFERASE: 84.33 u/L
  ALBUMIN: 4.1 G/DL
  ALKALINE PHOSPHATASE: 531.67 u/L
  ASPARTATE AMINOTRANSFERASE: 83 u/L
  BLOOD UREA NITROGEN: 10.67 mg/dL
  CARBON DIOXIDE: 34.67 mmol/L
  CHLORIDE: 98.33 MEQ/L
  CHOLESTEROL: 76.67 mg/dL
  CREATINE PHOSPHOKINASE: 231.33 u/L
  CREATININE: 0.16 mg/dL
  GLUCOSE: 154 mg/dL
  LACTATE DEHYDROGENASE: 122.67 u/L
  LIPASE: 10 u/L
  PHOSPHORUS: 10.13 mg/dL
  POTASSIUM: 5.23 MEQ/L
  SODIUM: 142.43 MEQ/L
  TOTAL BILIRUBIN: 0.23 mg/dL
  TOTAL PROTEIN: 5.83 G/DL
  URIC ACID: 0.43 mg/dL
[3]
  ABSOLUTE BASOPHIL: 0 CELLS/uL
  ABSOLUTE EOSINOPHIL: 0 CELLS/uL
  ABSOLUTE LYMPHOCYTE: 10747 CELLS/uL
  ABSOLUTE MONOCYTE: 27.33 CELLS/uL
  ABSOLUTE SEGMENTED NEUTROPHIL: 592.33 CELLS/uL
  BASOPHIL: 0%
  EOSINOPHIL: 0%
  ERYTHROCYTE COUNT: 5.51 x10E6/uL
  HEMATOCRIT: 33.6%
  HEMOGLOBIN: 13.4 G/DL
  LEUKOCYTE COUNT: 11.37 x10E3/uL
  LYMPHOCYTE: 94.33%
  MEAN CORPUSCULAR HEMOGLOBIN: 24.33 pg
  MEAN CORPUSCULAR VOLUME: 61.03 fL
  MONOCYTE: 0.33%
  NEUTROPHIL: 5.33%
  NUCLEATED RED BLOOD CELLS: 0 /100WBC
  PLATELET COUNT: 448 x10E3/uL
[4]
  ALANINE AMINOTRANSFERASE: 73 u/L
  ALBUMIN: 3.8 G/DL
  ALKALINE PHOSPHATASE: 350.67 u/L
  ASPARTATE AMINOTRANSFERASE: 101.33 u/L
  BLOOD UREA NITROGEN: 11.67 mg/dL
  CARBON DIOXIDE: 23.33 mmol/L
  CHLORIDE: 96 MEQ/L
  CHOLESTEROL: 61.33 mg/dL
  CREATINE PHOSPHOKINASE: 274.33 u/L
  CREATININE: 0.13 mg/dL
  GLUCOSE: 147.33 mg/dL
  LACTATE DEHYDROGENASE: 153 u/L
  LIPASE: 10.67 u/L
  PHOSPHORUS: 9.03 mg/dL
  POTASSIUM: 5.47 MEQ/L
  SODIUM: 137.1 MEQ/L
  TOTAL BILIRUBIN: 0.2 mg/dL
  TOTAL PROTEIN: 5.33 G/DL
  URIC ACID: 0.67 mg/dL
[5]
  ABSOLUTE BASOPHIL: 0 CELLS/uL
  ABSOLUTE EOSINOPHIL: 0 CELLS/uL
  ABSOLUTE LYMPHOCYTE: 7671 CELLS/uL
  ABSOLUTE MONOCYTE: 21 CELLS/uL
  ABSOLUTE SEGMENTED NEUTROPHIL: 641.33 CELLS/uL
  BASOPHIL: 0%
  EOSINOPHIL: 0%
  ERYTHROCYTE COUNT: 5.28 x10E6/uL
  HEMATOCRIT: 33.33%
  HEMOGLOBIN: 12.97 G/DL
  LEUKOCYTE COUNT: 8.33 x10E3/uL
  LYMPHOCYTE: 92%
  MEAN CORPUSCULAR HEMOGLOBIN: 24.53 pg
  MEAN CORPUSCULAR VOLUME: 63 fL
  MONOCYTE: 0.33%
  NEUTROPHIL: 7.67%
  NUCLEATED RED BLOOD CELLS: 0.33 /100WBC
  PLATELET COUNT: 1052.33 x10E3/uL
[6]
  ALANINE AMINOTRANSFERASE: 67.67 u/L
  ALBUMIN: 4.03 G/DL
  ALKALINE PHOSPHATASE: 389.33 u/L
  ASPARTATE AMINOTRANSFERASE: 88.67 u/L
  BLOOD UREA NITROGEN: 14.67 mg/dL
  CARBON DIOXIDE: 35 mmol/L
  CHLORIDE: 99.67 MEQ/L
  CHOLESTEROL: 57.33 mg/dL
  CREATINE PHOSPHOKINASE: 199.67 u/L
  CREATININE: 0.15 mg/dL
  GLUCOSE: 156.67 mg/dL
  LACTATE DEHYDROGENASE: 157.67 u/L
  LIPASE: 9.67 u/L
  PHOSPHORUS: 10.33 mg/dL
  POTASSIUM: 5.37 MEQ/L
  SODIUM: 144.23 MEQ/L
  TOTAL BILIRUBIN: 0.17 mg/dL
  TOTAL PROTEIN: 5.67 G/DL
  URIC ACID: 0.5 mg/dL
